Test results: patent publication US11629139B2 (priority 2017, dated 2023)
Like-named read-outs stand apart in the source and are kept apart here.

Test system: vesicular stomatitis virus particles (VSV) pseudotyped with EboV Zaire GP
Test: microbe, parasite or virus in culture
Format: cell-based

COC(=O)c1ccc(COc2ccccc2CN2CCN(C(=O)CNC(=O)C3(F)CC3)CC2)cc1 [Compound 1376, Methyl 4-((2-((4-((1-fluorocyclopropane-1-carbonyl)glycyl)piperazin-1-yl)methyl)phenoxy)methyl)benzoate]
IC50 (Vesicular stomatitis virus): > 2000 nM

O=C(CC1CCC(F)(F)CC1)NCC(=O)N1CCN(Cc2cc(Cl)ccc2NC(=O)C2CC2)CC1 [Compound 1378, N-(4-Chloro-2-((4-((2-(4,4-difluorocyclohexyl)acetyl)glycyl)piperazin-1-yl)methyl)phenyl)cyclopropanecarboxamide]
IC50 (Vesicular stomatitis virus): > 2000 nM

O=C(CC1CCC(F)(F)CC1)NCC(=O)N1CCN(Cc2cc(Cl)ccc2NS(=O)(=O)C2CC2)CC1 [Compound 1379, N-(2-(4-(5-Chloro-2-(cyclopropanesulfonamido)benzyl)piperazin-1-yl)-2-oxoethyl)-2-(4,4-difluorocyclohexyl)acetamide]
IC50 (Vesicular stomatitis virus): ~2200 nM

Nc1c(Cl)cc(Cl)cc1CN1CCN(C(=O)CNC(=O)CC2CCC(F)(F)CC2)CC1 [Compound 1381, N-(2-(4-(2-Amino-3,5-dichlorobenzyl)piperazin-1-yl)-2-oxoethyl)-2-(4,4-difluorocyclohexyl)acetamide]
IC50 (Vesicular stomatitis virus): > 2000 nM

O=C(CC1CCC(F)(F)CC1)NCC(=O)N1CCN(Cc2cccc(Cl)c2Cl)CC1 [Compound 1382, N-(2-(4-(2,3-Dichlorobenzyl)piperazin-1-yl)-2-oxoethyl)-2-(4,4-difluorocyclohexyl)acetamide]
IC50 (Vesicular stomatitis virus): > 2000 nM

O=C(CC1CCC(F)(F)CC1)NCC(=O)N1CCN(Cc2cc(Cl)cc(Cl)c2)CC1 [Compound 1383, N-(2-(4-(3,5-dichlorobenzyl)piperazin-1-yl)-2-oxoethyl)-2-(4,4-difluorocyclohexyl)acetamide]
IC50 (Vesicular stomatitis virus): > 2000 nM

COc1ccc(Cl)cc1CN1CCN(C(=O)CNC(=O)CC2CCC(F)(F)CC2)CC1 [Compound 1384, N-(2-(4-(5-Chloro-2-methoxybenzyl)piperazin-1-yl)-2-oxoethyl)-2-(4,4-difluorocyclohexyl)acetamide]
IC50 (Vesicular stomatitis virus): 330 nM

Nc1cc(Cl)cc(CN2CCN(C(=O)CNC(=O)CC3CCC(F)(F)CC3)CC2)c1 [Compound 1385, N-(2-(4-(3-Amino-5-chlorobenzyl)piperazin-1-yl)-2-oxoethyl)-2-(4,4-difluorocyclohexyl)acetamide]
IC50 (Vesicular stomatitis virus): 2200 nM

Nc1ccc(Cl)cc1CN1CCN(C(=O)CNC(=O)C2C3CC(F)(F)CC32)CC1 [Compound 1386, (1R,5S,6r)-N-(2-(4-(2-Amino-5-chlorobenzyl)piperazin-1-yl)-2-oxoethyl)-3,3-difluorobicyclo[3.1.0]hexane-6-carboxamide]
IC50 (Vesicular stomatitis virus): 4400 nM

Nc1ccc(CN2CCN(C(=O)CNC(=O)CC3CCC(F)(F)CC3)CC2)cc1Cl [Compound 1387, N-(2-(4-(4-Amino-3-chlorobenzyl)piperazin-1-yl)-2-oxoethyl)-2-(4,4-difluorocyclohexyl)acetamide]
IC50 (Vesicular stomatitis virus): > 5000 nM

Nc1cc(Cl)cc(CN2CCN(C(=O)CNC(=O)C3CC34CCC(F)(F)CC4)CC2)c1 (stereo not shown) [Compound 1388, N-(2-(4-(3-Amino-5-chlorobenzyl)piperazin-1-yl)-2-oxoethyl)-6,6-difluorospiro[2.5]octane-1-carboxamide]
IC50 (Vesicular stomatitis virus): 500 nM

Nc1ccc(CN2CCN(C(=O)CNC(=O)C3CC34CCC(F)(F)CC4)CC2)cc1Cl (stereo not shown) [Compound 1390, N-(2-(4-(4-Amino-3-chlorobenzyl)piperazin-1-yl)-2-oxoethyl)-6,6-difluorospiro[2.5]octane-1-carboxamide]
IC50 (Vesicular stomatitis virus): 1100 nM

CNc1ccc(Cl)cc1CN1CCN(C(=O)CNC(=O)C2CC23CCC(F)(F)CC3)CC1 (stereo not shown) [Compound 1391, N-(2-(4-(5-Chloro-2-(methylamino)benzyl)piperazin-1-yl)-2-oxoethyl)-6,6-difluorospiro[2.5]octane-1-carboxamide]
IC50 (Vesicular stomatitis virus): 80 to 260 nM

O=C(Nc1ccccc1)Nc1ncc(Cl)cc1CN1CCN(C(=O)CNC(=O)C2CC23CCC(F)(F)CC3)CC1 (stereo not shown) [Compound 1392, N-(2-(4-((5-Chloro-2-(3-phenylureido)pyridin-3-yl)methyl)piperazin-1-yl)-2-oxoethyl)-6,6-difluorospiro[2.5]octane-1-carboxamide]
IC50 (Vesicular stomatitis virus): 1000 nM

O=C(Nc1ncc(Cl)cc1CN1CCN(C(=O)CNC(=O)C2CC23CCC(F)(F)CC3)CC1)NC1CC1 (stereo not shown) [Compound 1393, N-(2-(4-((5-Chloro-2-(3-cyclopropylureido)pyridin-3-yl)methyl)piperazin-1-yl)-2-oxoethyl)-6,6-difluorospiro[2.5]octane-1-carboxamide]
IC50 (Vesicular stomatitis virus): > 5000 nM

Nc1ccc(C2CC2)cc1CN1CCN(C(=O)CNC(=O)C2CC23CCC(F)(F)CC3)CC1 (stereo not shown) [Compound 1397]
IC50 (Vesicular stomatitis virus): 2400 to 4200 nM

O=C(NCC(=O)N1CCN(Cc2cc(Cl)ccc2O)CC1)C1CC12CCC(F)(F)CC2 (stereo not shown) [Compound 1398, N-(2-(4-(5-Chloro-2-hydroxybenzyl)piperazin-1-yl)-2-oxoethyl)-6,6-difluorospiro[2.5]octane-1-carboxamide]
IC50 (Vesicular stomatitis virus): 75 to 320 nM

CCC1(CC)CC1C(=O)NCC(=O)N1CCN(Cc2cc(Cl)ccc2O)CC1 (stereo not shown) [Compound 1399, N-(2-(4-(5-Chloro-2-hydroxybenzyl)piperazin-1-yl)-2-oxoethyl)-2,2-diethylcyclopropane-1-carboxamide]
IC50 (Vesicular stomatitis virus): 220 nM

O=C(CC1CCC(F)(F)CC1)NCC(=O)N1CCN(Cc2cc(Br)ccc2O)CC1 [Compound 1400, N-(2-(4-(5-Bromo-2-hydroxybenzyl)piperazin-1-yl)-2-oxoethyl)-2-(4,4-difluorocyclohexyl)acetamide]
IC50 (Vesicular stomatitis virus): 670 nM

O=C(CC1CCC(F)(F)CC1)NCC(=O)N1CCN(Cc2cc(Cl)cc(Cl)c2O)CC1 [Compound 1401, N-(2-(4-(3,5-Dichloro-2-hydroxybenzyl)piperazin-1-yl)-2-oxoethyl)-2-(4,4-difluorocyclohexyl)acetamide]
IC50 (Vesicular stomatitis virus): 3700 nM

O=C(CC1CCC(F)(F)CC1)NCC(=O)N1CCN(Cc2cc(Cl)cc(F)c2O)CC1 [Compound 1402, N-(2-(4-(5-Chloro-3-fluoro-2-hydroxybenzyl)piperazin-1-yl)-2-oxoethyl)-2-(4,4-difluorocyclohexyl)acetamide]
IC50 (Vesicular stomatitis virus): 2900 nM

O=C(CC1CCC(F)(F)CC1)NCC(=O)N1CCN(Cc2cc(Cl)ccc2O)CC1 [Compound 1403, N-(2-(4-(5-Chloro-2-hydroxybenzyl)piperazin-1-yl)-2-oxoethyl)-2-(4,4-difluorocyclohexyl)acetamide]
IC50 (Vesicular stomatitis virus): 190 to 730 nM

O=C(NCC(=O)N1CCN(Cc2cc(Cl)cc(F)c2O)CC1)C1CC12CCC(F)(F)CC2 (stereo not shown) [Compound 1404, N-(2-(4-(5-chloro-3-fluoro-2-hydroxybenzyl)piperazin-1-yl)-2-oxoethyl)-6,6-difluorospiro[2.5]octane-1-carboxamide]
IC50 (Vesicular stomatitis virus): 630 nM

O=C(NCC(=O)N1CCN(Cc2cc(Cl)cc3cccnc23)CC1)C1CC12CCC(F)(F)CC2 (stereo not shown) [Compound 1405, N-(2-(4-((6-Chloroquinolin-8-yl)methyl)piperazin-1-yl)-2-oxoethyl)-6,6-difluorospiro[2.5]octane-1-carboxamide]
IC50 (Vesicular stomatitis virus): 70 to 260 nM

O=C(CC1CCC(F)(F)CC1)NCC(=O)N1CCN(Cc2cc(Cl)cc3cn[nH]c23)CC1 [Compound 1406, N-(2-(4-((5-Chloro-JH-indazol-7-yl)methyl)piperazin-1-yl)-2-oxoethyl)-2-(4,4-difluorocyclohexyl)acetamide]
IC50 (Vesicular stomatitis virus): 460 nM

Nc1c(Cl)cccc1CN1CCN(C(=O)CNC(=O)C2CC23CCC(F)(F)CC3)CC1 (stereo not shown) [Compound 1407, N-(2-(4-(2-Amino-3-chlorobenzyl)piperazin-1-yl)-2-oxoethyl)-6,6-difluorospiro[2.5]octane-1-carboxamide]
IC50 (Vesicular stomatitis virus): 230 to 500 nM

O=C(CC1CCC(F)(F)CC1)NCC(=O)N1CCN(Cc2ccc(F)c(Cl)c2F)CC1 [Compound 1408]
IC50 (Vesicular stomatitis virus): 4000 nM

Nc1ccc(Cl)cc1CN1CCN(C(=O)CNC(=O)C2CC23CCC3)CC1 (stereo not shown) [Compound 1409, N-(2-(4-(2-Amino-5-chlorobenzyl)piperazin-1-yl)-2-oxoethyl)spiro[2.3]hexane-1-carboxamide]
IC50: 2900 nM

Nc1ccc(Cl)cc1CN1CCN(C(=O)CNC(=O)C2CC23CCCC3)CC1 (stereo not shown) [Compound 1410, N-(2-(4-(2-Amino-5-chlorobenzyl)piperazin-1-yl)-2-oxoethyl)spiro[2.4]heptane-1-carboxamide]
IC50: 220 to 490 nM

CCC1(CC)CC1C(=O)NCC(=O)N1CCN(Cc2cc(Cl)ccc2N)CC1 (stereo not shown) [Compound 1411, N-(2-(4-(2-amino-5-chlorobenzyl)piperazin-1-yl)-2-oxoethyl)-2,2-diethylcyclopropane-1-carboxamide]
IC50 (Vesicular stomatitis virus): 140 nM

O=C(NCC(=O)N1CCN(Cc2cccc3cccnc23)CC1)C1CC12CCC(F)(F)CC2 (stereo not shown) [Compound 1420, 6,6-Difluoro-N-(2-oxo-2-(4-(quinolin-8-ylmethyl)piperazin-1-yl)ethyl)spiro[2.5]octane-1-carboxamide]
IC50 (Vesicular stomatitis virus): 490 nM

O=C(NCC(=O)N1CCN(Cc2cc(Cl)cc3cn[nH]c23)CC1)C1CC12CCC(F)(F)CC2 (stereo not shown) [Compound 1421, N-(2-(4-((5-Chloro-JH-indazol-7-yl)methyl)piperazin-1-yl)-2-oxoethyl)-6,6-difluorospiro[2.5]octane-1-carboxamide]
IC50 (Vesicular stomatitis virus): > 5000 nM

O=C(CC1CCC(F)(F)CC1)NCC(=O)N1CCN(Cc2cc(Cl)cc3cccnc23)CC1 [Compound 1422, N-(2-(4-((6-Chloroquinolin-8-yl)methyl)piperazin-1-yl)-2-oxoethyl)-2-(4,4-difluorocyclohexyl)acetamide]
IC50 (Vesicular stomatitis virus): 360 nM

CC1(CC(=O)NCC(=O)N2CCN(Cc3cc(Cl)cc4cccnc34)CC2)CCOCC1 [Compound 1424]
IC50 (Vesicular stomatitis virus): 2800 nM

O=C(NCC(=O)N1CCN(Cc2cc(Cl)ccc2O)CC1)C1CC1c1ccc(F)cc1 (stereo not shown) [Compound 1425, N-(2-(4-(5-Chloro-2-hydroxybenzyl)piperazin-1-yl)-2-oxoethyl)-2-(4-fluorophenyl)cyclopropane-1-carboxamide]
IC50 (Vesicular stomatitis virus): 3400 nM

O=C(CC1CCC(F)(F)CC1)NCC(=O)N1CCN(Cc2cccc3ccncc23)CC1 [Compound 1427]
IC50 (Vesicular stomatitis virus): 2450 nM

O=C(CC1CCC(F)(F)CC1)NCC(=O)N1CCN(Cc2cccc3ncccc23)CC1 [Compound 1428, 2-(4,4-Difluorocyclohexyl)-N-(2-oxo-2-(4-(quinolin-5-ylmethyl)piperazin-1-yl)ethyl)acetamide]
IC50 (Vesicular stomatitis virus): > 5000 nM
